Data on 18 compounds can be found in US5206236A, “Method for the treatment of malaria” (priority 1991, dated 1993).

The structures appear in SMILES notation. “Also recorded” adds a separate entry of the source. Where two headings read alike, the source gives them in different places.

What all share (type): cell-based
The test system of assay [1] is Plasmodium falciparum strain W2 (chloroquine-resistant, mefloquine-sensitive). The assay is described as follows: In vitro drug sensitivity assay (3H-hypoxanthine incorporation), strain W2. As to conditions: for IC50: Plasmodium falciparum. As to the method: (§1) Plasmodium falciparum strains W2 (chloroquine-resistant, mefloquine-sensitive) and D6 (mefloquine-resistant, chloroquine-sensitive)were cultured in a medium consisting of RPMI-1640, 25 mM HEPES, 25 mM NaHCO3, and 10% (v/v) fresh frozen human plasma. Into the wells of a 96 well microtiter plate there was placed 200 ul per well of a 1.5% erythrocyte suspension containing 0.2% to 0.4% parasitized erythrocytes containing serial dilutions of the test compounds. The plate was then placed in an anaerobic chamber, flushed with nitrogen gas and incubated at 37° C. After 24 hours, 25 ul per well of G-^3 H-hypoxanthine (1 mCi/ml) were added and the plate reincubated as above. After 42 hours, the cells were harvested with a multimash-type cell harvester onto glass microfiber paper. A scintillation counter was used to determine the incorporated of ^3 H-hypoxanthine. The activities of the compounds tested were determined by comparing the incorporation of ^3 H-hypoxanthine to drug concentration using computerized non-linear regression analysis. [Antimicrob. Agents Chemother. 16:710, 1979; Am.J.Trop.Med.Hygiene 34:209, 1985].

For assay [2], the system named is Plasmodium falciparum strain D6 (mefloquine-resistant, chloroquine-sensitive). The assay is described as follows: In vitro drug sensitivity assay (3H-hypoxanthine incorporation), strain D6. The note with it: for IC50: Plasmodium falciparum. As to the method:
as §1

Assay [3] concerns Plasmodium falciparum strains W2 and D6. The assay is described as follows: In vitro drug sensitivity assay, overall efficacy over both strains. The note with it: qualitative. As to the method:
as §1

The mark [4] stands for this setting: strain W2, 3H-hypoxanthine incorporation, 42 hours, 37° C, read-out: IC50 (uM), W2.
[5] abbreviates: strain D6, 3H-hypoxanthine incorporation, 42 hours, 37° C, read-out: IC50 (uM), D6.

As usually defined, the IC50 is the point on the concentration scale where inhibition reaches its midpoint. For the compound `COc1cc(C(=N)N)ccc1OCCCOc1ccc(C(=N)N)cc1OC` [Example 1], the results for the IC50 in assay [1] (setting [4]) and in assay [2] (setting [5]) were 0.065 µM and 0.077 µM, respectively.

With `N=C(N)c1ccc(NCCCCNc2ccc(C(=N)N)cc2)cc1` [Example 2], the figures for the IC50 in assay [1] (setting [4]) and in assay [2] (setting [5]) were 0.057 µM and 0.025 µM, respectively.

Regarding `N=C(N)c1ccc(OCCCCOc2ccc(C(=N)N)cc2)cc1` [Example 3], the IC50 in assay [1] (setting [4]) was 0.12 µM; in assay [2] (setting [5]), 0.057 µM.

In the case of `N=C(N)c1ccc(OCCCCCOc2ccc(C(=N)N)cc2)cc1` [Example 4, reference compound], the “efficacy against malaria (in words)” value in assay [3] is reported as “moderately effective against malaria”. Further, the 50% inhibitory concentration (IC50) in assay [1] (W2, read-out: IC50 (uM), W2) worked out at 0.083 µM; in assay [2] (D6, read-out: IC50 (uM), D6) it was 0.038 µM.

On to `N=C(N)c1ccc(OCCCCCOc2ccc(C(=N)N)cc2[N+](=O)[O-])c([N+](=O)[O-])c1` [Example 5], for which the IC50 came to 0.069 µM in assay [1] (W2, read-out: IC50 (uM), W2) and 0.071 µM in assay [2] (D6, read-out: IC50 (uM), D6).

Regarding `N=C(N)c1ccc(OCCCCCOc2ccc(C(=N)N)cc2N)c(N)c1` [Example 6], the values for the concentration for half-maximal inhibition (IC50) in assay [1] (setting [4]) and in assay [2] (setting [5]) were 0.076 µM and 0.046 µM, respectively.

Turning to `COc1cc(C(=N)N)ccc1OCCCCCOc1ccc(C(=N)N)cc1OC` [Example 7], the IC50 in assay [1] (setting [4]) turned out to be 0.066 µM; in assay [2] (setting [5]), 0.106 µM.

As to `N=C(N)c1ccc(NCCCCCNc2ccc(C(=N)N)cc2)cc1` [Example 8], in assay [3], the “efficacy against malaria (in words)” value is recorded as “most efficacious product identified to date; also recorded: best compound for treating both strains of Plasmodium falciparum”. In addition, the IC50 in assay [1] (setting [4]) was 0.022 µM; in assay [2] (setting [5]) it was below 0.02 µM. The “efficacy against the chloroquine-resistant strain (W2) (in words)” value in assay [1] (qualitative) is “most effective compound”. The “efficacy against the mefloquine-resistant strain (D6) (in words)” value in assay [2] (qualitative) is given as “most effective compound”.

In the case of `N=C(N)c1ccc(OCCCCCCOc2ccc(C(=N)N)cc2)cc1` [Example 9], the 50% inhibitory concentration (IC50) in assay [1] (setting [4]) amounted to 0.345 µM; in assay [2] (setting [5]), 0.118 µM.

Regarding `N=C(N)c1ccc(OCCCCCOc2ccc(C(=N)N)cc2Cl)c(Cl)c1` [Example 10], the half-maximal inhibitory concentration (IC50) in assay [1] (setting [4]) was found to be 0.165 µM; in assay [2] (setting [5]) it was 0.107 µM.

For the compound `N=C(N)c1cccc(OCCCOc2cccc(C(=N)N)c2)c1` [Example 11], the results for the IC50 in assay [1] (setting [4]) and in assay [2] (setting [5]) were 0.156 µM and 0.194 µM, respectively.

For the compound `N=C(N)c1cccc(OCCCCOc2cccc(C(=N)N)c2)c1` [Example 12], in assay [3], the “efficacy against malaria (in words)” value is reported as “Very close in therapeutic efficacy against malaria”. For the same compound, the IC50 in assay [1] (setting [4]) was determined as 0.043 µM; in assay [2] (setting [5]) it was 0.046 µM.

As to `N=C(N)c1cccc(OCCCCCOc2cccc(C(=N)N)c2)c1` [Example 13], the values for the 50% inhibitory concentration (IC50) in assay [1] (setting [4]) and in assay [2] (setting [5]) were 0.08 µM and 0.069 µM, respectively.

For `N=C(N)c1cccc(OCCCCCCOc2cccc(C(=N)N)c2)c1` [Example 14], the half-inhibitory concentration (IC50) in assay [1] (setting [4]) was determined as 0.125 µM; in assay [2] (setting [5]), 0.132 µM.

Regarding `c1cc(C2=NCCN2)ccc1OCCCCCOc1ccc(C2=NCCN2)cc1` [Example 15], the “efficacy against malaria (in words)” value in assay [3] is “Very close in therapeutic efficacy against malaria”. Further, the IC50 in assay [1] (setting [4]) was 0.104 µM; in assay [2] (setting [5]), 0.023 µM.

Turning to `CN1CCN=C1c1ccc(OCCCCCOc2ccc(C3=NCCN3C)cc2)cc1` [Example 16], the 50% inhibitory concentration (IC50) stood at 1.82 µM in assay [1] (setting [4]) and 0.089 µM in assay [2] (setting [5]).

Consider `COc1cc(C2=NCCN2)ccc1OCCCOc1ccc(C2=NCCN2)cc1OC` [Example 17], for which the concentration for half-maximal inhibition (IC50) worked out at 0.06 µM in assay [1] (setting [4]) and 0.1 µM in assay [2] (setting [5]).

For `c1cc(C2=NCCN2)ccc1OCCCOc1ccc(C2=NCCN2)cc1` [Example 18], the “efficacy against malaria (in words)” value in assay [3] was “Very close in therapeutic efficacy against malaria”. The IC50 was found to be 0.06 µM in assay [1] (setting [4]) and 0.025 µM in assay [2] (setting [5]).
